Measured values as given in patent US8252796B2, “1-butyl-2-hydroxyaralkyl piperazine derivatives and the uses as anti-depression medicine thereof” (CSPC Zhonggi Pharmaceutical Technology (Shijiazhuang) Co. …, priority 2008, dated 2012).
pIC50: −log10 of the molar value.

What was measured:
[1] = molecular target: T1, 5-HT reuptake, Rat brain synaptosome (Rattus norvegicus, UniProt P31652); experiment: 5-HT reuptake, optical isomers (Example 37); format: biochemical; details: 15 min/37° C.
T1 construct: Rat brain; from tissue; host or cells: rat brain synaptosomes
T1 sequence (P31652 whole entry): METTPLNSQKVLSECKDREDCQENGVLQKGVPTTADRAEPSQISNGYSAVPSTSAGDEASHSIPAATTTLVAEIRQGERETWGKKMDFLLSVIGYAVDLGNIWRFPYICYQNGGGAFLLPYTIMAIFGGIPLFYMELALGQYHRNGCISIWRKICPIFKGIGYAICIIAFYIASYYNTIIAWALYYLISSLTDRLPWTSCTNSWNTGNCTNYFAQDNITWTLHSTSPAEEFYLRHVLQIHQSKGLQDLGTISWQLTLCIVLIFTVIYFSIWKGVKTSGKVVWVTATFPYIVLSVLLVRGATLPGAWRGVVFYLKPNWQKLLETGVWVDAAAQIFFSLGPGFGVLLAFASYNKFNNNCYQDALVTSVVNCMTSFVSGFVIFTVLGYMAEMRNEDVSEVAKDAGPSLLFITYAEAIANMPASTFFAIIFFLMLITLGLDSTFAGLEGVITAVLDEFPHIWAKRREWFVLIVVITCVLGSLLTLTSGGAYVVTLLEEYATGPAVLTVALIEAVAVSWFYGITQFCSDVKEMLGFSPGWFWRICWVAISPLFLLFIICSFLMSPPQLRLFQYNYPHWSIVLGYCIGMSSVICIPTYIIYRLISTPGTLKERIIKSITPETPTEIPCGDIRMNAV
Text: (§1) 3. Experiment Results (IC50 Value was Obtained by Nonlinear Regression Analysis of Inhibition Rate/Concentration Response Curve)

[2] = molecular target: T2, NE reuptake, Rat hypothalamus synaptosome (Rattus norvegicus, UniProt Q9WTR4); experiment: NE reuptake, optical isomers (Example 37); format: biochemical; details: 20 min/37° C.
T2 construct: hypothalamus; from tissue; host or cells: rat hypothalamus synaptosomes
T2 sequence (Q9WTR4 1-597): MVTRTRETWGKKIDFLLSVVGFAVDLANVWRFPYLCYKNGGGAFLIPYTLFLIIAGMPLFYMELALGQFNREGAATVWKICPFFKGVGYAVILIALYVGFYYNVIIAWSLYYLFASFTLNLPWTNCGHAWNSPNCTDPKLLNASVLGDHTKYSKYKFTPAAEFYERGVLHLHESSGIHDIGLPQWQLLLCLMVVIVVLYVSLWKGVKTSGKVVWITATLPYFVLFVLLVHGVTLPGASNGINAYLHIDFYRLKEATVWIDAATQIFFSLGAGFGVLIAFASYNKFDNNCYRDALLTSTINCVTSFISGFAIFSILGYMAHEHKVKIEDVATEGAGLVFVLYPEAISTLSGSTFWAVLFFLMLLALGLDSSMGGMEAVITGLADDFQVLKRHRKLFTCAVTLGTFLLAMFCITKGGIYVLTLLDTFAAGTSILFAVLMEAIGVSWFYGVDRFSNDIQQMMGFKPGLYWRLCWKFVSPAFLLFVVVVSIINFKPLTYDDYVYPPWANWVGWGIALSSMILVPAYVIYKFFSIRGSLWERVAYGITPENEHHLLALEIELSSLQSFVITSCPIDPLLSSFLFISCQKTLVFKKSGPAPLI
Text: as §1

[3] = molecular target: T3, DA reuptake, Rat striatum synaptosome (Rattus norvegicus, UniProt P23977); experiment: DA reuptake, optical isomers (Example 37); format: biochemical; details: 15 min/37° C.
T3 construct: Rat striatum; from tissue; host or cells: rat striatum synaptosomes
T3 sequence (P23977 whole entry): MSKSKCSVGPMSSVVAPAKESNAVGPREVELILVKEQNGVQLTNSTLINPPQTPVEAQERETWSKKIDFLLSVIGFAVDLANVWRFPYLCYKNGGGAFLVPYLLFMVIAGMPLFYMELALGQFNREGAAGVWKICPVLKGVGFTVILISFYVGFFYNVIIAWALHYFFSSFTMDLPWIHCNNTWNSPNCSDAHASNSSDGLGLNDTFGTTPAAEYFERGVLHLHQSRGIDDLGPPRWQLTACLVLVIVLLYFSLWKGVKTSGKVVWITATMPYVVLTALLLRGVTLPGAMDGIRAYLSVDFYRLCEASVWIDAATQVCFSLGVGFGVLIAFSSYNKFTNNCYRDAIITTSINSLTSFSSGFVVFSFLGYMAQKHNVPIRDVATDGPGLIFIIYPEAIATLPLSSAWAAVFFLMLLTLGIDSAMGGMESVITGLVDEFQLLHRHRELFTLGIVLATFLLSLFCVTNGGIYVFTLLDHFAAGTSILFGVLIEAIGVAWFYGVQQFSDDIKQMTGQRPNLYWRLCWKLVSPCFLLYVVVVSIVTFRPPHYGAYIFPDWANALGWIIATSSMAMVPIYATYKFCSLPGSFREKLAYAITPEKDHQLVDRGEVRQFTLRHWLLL
Text: as §1

[4] = molecular target: T4, reuptake of 5-HT by brain synaptosomes (prefrontal cortex) (Rattus norvegicus, UniProt P31652); experiment: Inhibition of [3H]5-HT reuptake by rat brain synaptosomes, single concentration (Example 35); format: biochemical; details: test substance 10 μmol/L; inhibitory rate of 0.1 mM venlafaxine taken as 100%
T4 construct: from tissue; host or cells: rat prefrontal cortex synaptosomes
T4 sequence (P31652 whole entry): as the sequence (P31652 whole entry) above
Experimental: (§2) Studies on the reuptake of monoamine neurotransmitters by brain synaptosomes was performed, which is a currently important mean adopted in the worldwide in pharmacological studies of central nervous. This method can not only be used to study the action mechanism of a drug, but also be used for screening new drugs acting by this mechanism.
(§3) Male SD rats were sacrificed by cervical dislocation and then the brains thereof were taken out rapidly by decollation and placed on ice. Related rain tissues (for [^3H]5-HT and [^3H]NA reuptake experiment, prefrontal cortex was taken; for [^3H]DA reuptake experiment, striatum was taken) were separated and weighed. 10 times (V/W) of 0.32 mol/L ice-cold sucrose solution was added and was homogenized electrically with glass-teflon. The homogenate was centrifugated at 4° C. at 1000 g×10 min. Then the supernatant was taken and centrifugated at 4° C. at 17000 g×20 min. The precipitation was suspended in 30 volume of KRH Buffer (125 mM NaCl, 4.8 mM KCl, 1.2 mM CaCl2, 1.2 mM MgSO4, 1.0 mM KH2PO4, 22 mM NaHCO3, 25 mM HEPES, 10 mM Glucose, 10 μM Pargyline, 0.2 mg/ml Ascorbic Acid) and then was preserved in an ice bath for use. (for NA reuptake experiment, the cortex needed was suspended in 20 volume of KRH Buffer)
(§4) Stock solution of the test substance was thawed immediately before use and diluted with KBH Buffer to 100 μmol/L, 50 μl thereof was added in 500 μl of total reaction system, and the final concentration was 10 μmol/L. Then 50 μl suspended synaptic prepared above was added and mixed evenly, incubated in water bath for 30 min at 37° C. Then […] [^3H] 5-HT (50 nmol/L [^3H]DA or […] [^3H]NA) was added. After incubated at 37° C. for 10 min, the reaction system was immediately taken out and the reaction was stopped by adding 2 ml of ice-cold 150 mmol/L Tris-HCl buffer solution. The samples were collected on the circular fiberglass membrane by vacuum filtration, and the membrane was washed 3 times with 3 ml of ice-cold Tris-HCl buffer solution. The filtration membrane was removed, baked for 15 min in a far-infrared oven and placed into an EP tube. 1.5 ml scintillation fluid was added overnight and was tested by liquid scintillation counter. For the solvent control total binding tube and the non-specific binding tube, no test substance was added; for the total binding tube, 50 μl solvent was added.

[5] = molecular target: T5, reuptake of NA by brain synaptosomes (prefrontal cortex) (Rattus norvegicus, UniProt Q9WTR4); experiment: Inhibition of [3H]NA reuptake by rat brain synaptosomes, single concentration (Example 35); format: biochemical; details: test substance 10 μmol/L; inhibitory rate of 0.1 mM venlafaxine taken as 100%
T5 construct: from tissue; host or cells: rat prefrontal cortex synaptosomes
T5 sequence (Q9WTR4 1-597): as the sequence (Q9WTR4 1-597) above
Experimental: as §2, §3, §4

[6] = molecular target: T6, reuptake of DA by brain synaptosomes (striatum) (Rattus norvegicus, UniProt P23977); experiment: Inhibition of [3H]DA reuptake by rat brain synaptosomes, single concentration (Example 35); format: biochemical; details: test substance 10 μmol/L; inhibitory rate of 0.1 mM 6-hydroxy DA taken as 100%
T6 construct: from tissue; host or cells: rat striatum synaptosomes
T6 sequence (P23977 whole entry): as the sequence (P23977 whole entry) above
Experimental: as §2, §3, §4

[7] = molecular target: T7, reuptake of [3H]5-HT by prefrontal cortex synaptosomes (Rattus norvegicus, UniProt P31652); experiment: IC50 for inhibiting reuptake of [3H]5-HT by brain synaptosomes (Example 36); format: biochemical; details: mean, n = 3~4
T7 construct: from tissue; host or cells: rat prefrontal cortex synaptosomes
T7 sequence (P31652 whole entry): as the sequence (P31652 whole entry) above
Experimental: as §3, with “The precipitation was suspended in 30 volume of KRH Buffer (125 mM NaCl, 4.8 mM KCl, 1.2 mM CaCl2, 1.2 mM MgSO4, 1.0 mM KH2PO4, 22 mM NaHCO3, 25 mM HEPES, 10 mM Glucose, 10 μM Pargyline, 0.2 mg/ml Ascorbic Acid) and then was preserved in an ice bath for use.” left out
(§5) The compounds were used for the studies on inhibition effect (IC50) on reuptake of [^3H]5-HT/NA/DA. At least 5 concentrations each time were settled for each test compound. Each concentration was determined by the average of double twin tubes and the test was repeated for more than 3 times. A series of concentrations of the compounds were prepared by gradient dilution before use. 50 μl thereof was added in total reaction system. Then 50 μl suspended synaptic membrane was added and mixed evenly, incubated in water bath at 37° C. for 30 min. Then 10 nmol/L [^3H] 5-HT (or 50 nmol/L [^3H]DA or 40 nmol/L [^3H]NA) was added and incubated in water bath at 37° C. for 10 min (for [^3H]NA, incubated for 5 min). For the [^3H]5-HT reuptake experiment, 50 μL of fluoxetine (100 μmol/L) was added to the non-specific binding tube; for the [^3H]DA reuptake experiment, 50 μL of cocaine (600 μmol/L) was added to the non-specific binding tube; for the [^3H]NA reuptake experiment, 50 μL of desipramine (100 μmol/L) was added to the non-specific binding tube; for the solvent control, solvent was added to the total binding tube, but no test compound added.
(§6) Sigmoidal curve fitting was performed for the data obtained from all of the test drugs by Origin 6.1, and the IC50 value was calculated.

[8] = molecular target: T8, reuptake of [3H]NA by prefrontal cortex synaptosomes (Rattus norvegicus, UniProt Q9WTR4); experiment: IC50 for inhibiting reuptake of [3H]NA by brain synaptosomes (Example 36); format: biochemical; details: mean, n = 3~4
T8 construct: from tissue; host or cells: rat prefrontal cortex synaptosomes
T8 sequence (Q9WTR4 1-597): as the sequence (Q9WTR4 1-597) above
Experimental: as §3
(§7) 1. Preparation of Rat Brain Synaptosomes (the Same as Example 35)
as §5, §6

[9] = molecular target: T9, reuptake of [3H]DA by striatum synaptosomes (Rattus norvegicus, UniProt P23977); experiment: IC50 for inhibiting reuptake of [3H]DA by brain synaptosomes (Example 36); format: biochemical; details: mean, n = 3~4
T9 construct: from tissue; host or cells: rat striatum synaptosomes
T9 sequence (P23977 whole entry): as the sequence (P23977 whole entry) above
Experimental: as §3, §7, §5, §6

ICR mice = experiment: Mice Forced Swimming Test (in vivo antidepression activity); details: for swimming test: immobility time: n = 12, mean±SD
[10] = Pharmacokinetics and bioavailability, single i.v. and oral administration in SD rat; format: in vivo; details: for bioavailability: oral 50 mg/kg vs i.v. 10 mg/kg
Experimental: To study the pharmacokinetics parameters and the bioavailability of VIII-9, VIII-10 and SIPI5286 when single i.v. and oral administration in SD rat
Eighteen male rats were randomized into 6 groups and were administrated with the three compounds via i.v. and oral route, respectively. The dosage was 10 mg/kg (IV) and 50 mg/kg (PO). The test substance was dissolved in the solution of 5% DMSO/95% HP-β-CD aqueous solution (30%), and were administrated to the animal via i.v. and oral route. Blood plasma was collected at a serial of time points after i.v. and oral administration, and the blood drug concentrations were determined by LC/MS/MS. Then the pharmacokinetics parameters and the bioavailability were calculated based on the blood drug concentrations.

mice = experiment: Oral administration acute toxicity in mice; details: for mortality (%) / number of died animals: 14 days
[11] = one week oral administration, 10.4 mg/kg
[12] = one week oral administration, 17.3 mg/kg
[13] = one week oral administration, 28.8 mg/kg
[14] = one week oral administration, 48 mg/kg
[15] = single oral administration, 10.4 mg/kg
[16] = single oral administration, 17.3 mg/kg
[17] = single oral administration, 28.8 mg/kg
[18] = single oral administration, 48 mg/kg

| Structure (SMILES) | pIC50 [1] | pIC50 [2] | pIC50 [3] | Inhibition on the reuptake of 5-HT(%) [4] [%] | inhibition on the reuptake of NA(%) [5] [%] | inhibition on the reuptake of DA(%) [6] [%] | pIC50 [7] | pIC50 [8] | pIC50 [9] | swimming test: immobility time (ICR mice; [11]) [s] | swimming test: immobility time (ICR mice; [12]) [s] | swimming test: immobility time (ICR mice; [13]) [s] | swimming test: immobility time (ICR mice; [14]) [s] | ED50 swimming test (ICR mice; single oral administration) [mg/kg] | swimming test: immobility time (ICR mice; [15]) [s] | swimming test: immobility time (ICR mice; [16]) [s] | swimming test: immobility time (ICR mice; [17]) [s] | swimming test: immobility time (ICR mice; [18]) [s] | AUC (0-t) ([10]; i.v. 10 mg/kg) [ng·h/mL] | half life (T½) ([10]; i.v. 10 mg/kg) [h] | also measured |
| --- | --- | --- | --- | --- | --- | --- | --- | --- | --- | --- | --- | --- | --- | --- | --- | --- | --- | --- | --- | --- | --- |
| CCCCC(C(O)c1ccc2c(Cl)c(OC)ccc2c1)N1CCN(Cc2ccccc2)CC1 (single isomer, unassigned) [IX-24] | 5.51 | 5.85 | 5.96 |  |  |  |  |  |  |  |  |  |  |  |  |  |  |  |  |  |  |
| CCCC[C@H]([C@@H](O)c1ccc2c(Cl)c(OC)ccc2c1)N1CCN(Cc2ccccc2)CC1 (racemic) [VIII-9, (1SR,2RS)-N^1-benzyl-N^4-[1-butyl-2-(5′-chloro-6′-methoxyl-2′-naphthyl)hydroxyethyl]piperazine] |  |  |  | 125 | 155.2 | 117 | 7.14 | 8.55 | 8.68 | 93.4 ± 26.71 | 82.1 ± 44.06 | 87.2 ± 40.07 | 91.5 ± 58.14 | 34.3 | 74.3 ± 46.63 | 119.4 ± 28.02 | 77.4 ± 53.81 | 104.3 ± 75.81 | 4060.59 | 7.83 | Cmax ([10]; i.v. 10 mg/kg, (5 min)): 2640.94 ng/mL; AUC (0-t) ([10]; oral 50 mg/kg): 3345.73 ng·h/mL; Cmax ([10]; oral 50 mg/kg): 352.27 ng/mL; Tmax ([10]; oral 50 mg/kg): 1.50 h; half life (T½) ([10]; oral 50 mg/kg): 5.89 h; bioavailability [10]: 16.32%; mortality (%) (mice; oral 507.8 mg/kg): 0%; number of died animals (mice; oral 507.8 mg/kg): 0; mortality (%) (mice; oral 781.2 mg/kg): 0%; number of died animals (mice; oral 781.2 mg/kg): 0; mortality (%) (mice; oral 1201.9 mg/kg): 0%; number of died animals (mice; oral 1201.9 mg/kg): 0; mortality (%) (mice; oral 1849.1 mg/kg): 0%; number of died animals (mice; oral 1849.1 mg/kg): 0; mortality (%) (mice; oral 2844.7 mg/kg): 0%; number of died animals (mice; oral 2844.7 mg/kg): 0 |
| CCCCC(C(O)c1ccc2c(Cl)c(OC)ccc2c1)N1CCN(Cc2ccccc2)CC1 [IX-25, (1R,2S)-N^1-benzyl-N^4-[1-butyl-2-(5′-chloro-6′-methoxyl-2′-naphthyl)hydroxyethyl]piperazine] | 6.08 | 6.85 | 6.17 |  |  |  |  |  |  |  |  |  |  |  |  |  |  |  |  |  |  |
| CCCCC(C(O)c1ccc2c(Cl)c(OC)ccc2c1)N1CCN(Cc2ccccc2)CC1 (single isomer, unassigned) [IX-23] | 5.72 | 5.68 | 6.00 |  |  |  |  |  |  |  |  |  |  |  |  |  |  |  |  |  |  |
| CCCC[C@H]([C@H](O)c1ccc2c(Cl)c(OC)ccc2c1)N1CCN(Cc2ccccc2)CC1 (racemic) [VIII-10, (1SR,2SR)-N^1-benzyl-N^4-[1-butyl-2-(5′-chloro-6′-methoxyl-2′-naphthyl)hydroxyethyl]piperazine] |  |  |  | 136 | 145 | 133 | 6.57 | 5.33 | 6.78 | 77.6 ± 24.69 | 78.2 ± 25.63 | 51.9 ± 51.23 | 68.3 ± 34.01 | 11.8 | 81.8 ± 39.34 | 43.4 ± 35.41 | 40.8 ± 40.24 | 64.4 ± 43.01 | 2932.05 | 9.06 | Cmax ([10]; i.v. 10 mg/kg, (5 min)): 2998.49 ng/mL; AUC (0-t) ([10]; oral 50 mg/kg): 5552.24 ng·h/mL; Cmax ([10]; oral 50 mg/kg): 727.20 ng/mL; Tmax ([10]; oral 50 mg/kg): 1.67 h; half life (T½) ([10]; oral 50 mg/kg): 16.41 h; bioavailability [10]: 63.78%; mortality (%) (mice; oral 507.8 mg/kg): 0.00%; number of died animals (mice; oral 507.8 mg/kg): 0; mortality (%) (mice; oral 781.2 mg/kg): 33.3%; number of died animals (mice; oral 781.2 mg/kg): 2; mortality (%) (mice; oral 1201.9 mg/kg): 66.7%; number of died animals (mice; oral 1201.9 mg/kg): 4; mortality (%) (mice; oral 1849.1 mg/kg): 83.3%; number of died animals (mice; oral 1849.1 mg/kg): 5; mortality (%) (mice; oral 2844.7 mg/kg): 100%; number of died animals (mice; oral 2844.7 mg/kg): 6; LD50 (95% confidential limit) (mice; oral, male & female, Bliss method): 1048.5 (751.33˜1433.7) mg/kg |
